Patent publication US11702646B2, “Methods for modulating RNA splicing” (PTC THERAPEUTICS, INC., priority 2016, dated 2023)

System: RNA transcripts of genes having intronic REMS elements
Assay: Change in isoform abundance and iExon/exon inclusion (ΔPSI, Fisher's Exact Test) in the presence of compound
Assay type: cell-based
Conditions: doses ranging from 0.3 μM to 3 μM, statistically significant adjusted Fisher's Exact Test p value
Experimental: Techniques known to one skilled in the art may be used to determine the amount of an RNA transcript(s). In some embodiments, the amount of one, two, three or more RNA transcripts is measured using deep sequencing, such as ILLUMINA® RNASeq, ILLUMINA® next generation sequencing (NGS), ION TORRENT™ RNA next generation sequencing, 454™ pyrosequencing, or Sequencing by Oligo Ligation Detection (SOLID™). In other embodiments, the amount of multiple RNA transcripts is measured using an exon array, such as the GENECHIP® human exon array. In certain embodiments, the amount of one, two, three or more RNA transcripts is determined by RT-PCR. In other embodiments, the amount of one, two, three or more RNA transcripts is measured by RT-qPCR or digital color-coded barcode technology. Techniques for conducting these assays are known to one skilled in the art. […]
Where “U” represents the value for probability of iExon inclusion (a+b)/2/[(a+b)/2+c]^U in the absence of the compound; and, where “C” represents the value for probability of iExon inclusion (a+b)/2/[(a+b)/2+c]^C in the presence of the compound. The values for “a” and “b” represent the number of reads supporting inclusion of an iExon in an RNA transcript. In other words, the “a” value is derived from the amount of reads for a first intronic nucleotide sequence comprising, in 5′ to 3′ order: a first exon having a 5′ splice site operably linked and upstream from a first intronic nucleotide sequence comprising a first branch point further operably linked and upstream from a first intronic 3′ splice site (upstream of the nascent iExon). The “b” value is derived from the amount of reads for a second intronic nucleotide sequence comprising, in 5′ to 3′ order: an iREMS sequence operably linked downstream from the first intronic 3′ splice site and upstream from a second intronic nucleotide sequence comprising a second branch point further operably linked and upstream from a second intronic 3′ splice site of a second exon. The value for “c” represents the number of reads supporting exclusion of an iExon. […]

Q: For `CCc1nc(C)cn2nc(-c3cc(=O)n4cc(C5CCN(C)CC5)cc(C)c4n3)cc12` [Compound 774], which “effect on change in isoform abundance as a result of having intronic REMS elements” value (genes of Table 7) is on record?
A: demonstrate an effect on change in isoform abundance

Q: And the “effect on inclusion of an iExon with a corresponding change in isoform abundance” value (genes of Table 7a)?
A: demonstrate an effect on inclusion of an iExon with a corresponding change in isoform abundance

Q: And the “effect on inclusion of an exon with a corresponding change in isoform abundance” value (genes of Table 7b)?
A: demonstrate an effect on inclusion of an exon with a corresponding change in isoform abundance
